In a melting point compilation (Tetko et al.):

| melting point [°C] | Structure (SMILES) |
| --- | --- |
| 221 to 223 | Cn1ccc2cc(C(=O)O)ccc21 |
| 199 to 201 | Cc1nn(-c2ccccc2)c(C)c1C(=O)O |
| 10 | CCOC(=O)CCCCCC(=O)O |
| 300 | O=C1c2ccccc2C(=O)c2c(Nc3cccc4c3C(=O)c3ccccc3C4=O)cccc21 |
| 101 | CCN(CC)CCNc1ccc(CO)c2sc3ccccc3c(=O)c12 |
| 96 | COc1cc(OCc2ccccc2)ccc1C=O |
| 67 | Cc1ccc2cccc(Cl)c2n1 |
| 222 to 224 | O=C1/C(=N\O)C(c2ccc([N+](=O)[O-])cc2)=NN1c1ccccc1 |
| 140 to 142 | O=C(Nc1cccnc1Cl)c1ccc(F)cc1 |
| 110 to 111 | CCOC(=O)c1cc(C)nc2ccc(Br)cc12 |
| -43.1 | CCCCCCC(C)(C)S |
| 141 to 142 | CC(=O)Nc1ccc(N)cc1C |
| 166 | COc1ccc(N2C(=O)C3ON=C(C(=O)c4ccccc4)C3C2=O)cc1 (stereo not drawn) |
| 86 | COC(=O)Cc1c(Cl)[nH]c(C)c1C(=O)OC |
| 88 to 90 | CCOC(=O)C(=O)C(C#N)C(=O)OCC (stereo not drawn) |
| 92 | NNC(=O)c1cccc(N)c1 |
| 133 to 134 | O=[N+]([O-])c1cc(/C=N\c2ccccc2)ccc1/C=N/c1ccccc1 |
| 52 to 53 | Cc1ccccc1CS(=O)(=O)Cl |
| 163 to 168 | NC(=S)Nc1ccc(F)cc1F |
| 94 to 95 | O=Cc1ccc(-n2cccc2)cc1 |
| 79.6 to 80 | O=[N+]([O-])c1ccc(CN2CCOCC2)cc1 |
| 47.5 | CC(C=Cc1ccccc1)c1ccccc1 (stereo not drawn) |

| melting point [°C] | Structure (SMILES) |
| --- | --- |
| 109 to 110 | O=Cc1cc([N+](=O)[O-])ccc1Sc1ccccn1 |
| 136 to 139 | O=c1oc(=O)n(Cc2ccccc2)c2ccccc12 |
| 126 | CS(=O)(=O)Nc1ccc2nn(C3CCCC3)nc2c1 |
| 190 to 195 | Cc1ccccc1NC(N)=O |
| 220 to 221 | Cc1ccc(Cc2ccc(CP(=O)(c3ccccc3)c3ccccc3)o2)o1 |
| 262 | CC(=O)NCCNc1cc(=O)oc2ccccc12 |
| 132 | CC(=O)OCC1=CC2OC(=O)C3=COC(OC4OC(CO)C(O)C(O)C4O)C1C32 (stereo not drawn) |
| 100 | CCCCCCN(C)C(=O)COC(=O)c1ccccc1 |
| 77 | Nc1cccnc1Br |
| 89 to 90 | CC(=O)O[C@H]1CCCC2=CC(=O)CC[C@@]21C |
| 146 to 147 | O=C(O)CCC(=O)c1ccc(Br)cc1 |
| 35 | COC(=O)c1occc1C |
| 213 | CC(=O)OC1(C(C)=O)CCC2C3C=C(Cl)C4=CC(=O)CCC4(C)C3CCC21C (stereo not drawn) |
| 114 | COc1cc(C(=O)c2ccc(Cl)cc2Cl)c([N+](=O)[O-])cc1OC |
| 152 | Cn1c(=O)c2c(ncn2CCOC(=O)c2cccnc2)n(C)c1=O |
| 312 | Nc1nn2c(-c3ccccc3)cc(=O)[nH]c2c1/N=N/c1ccc(Cl)cc1 |
| 92 to 93 | Cc1ccc2sc(Br)cc2c1 |
| 107 | NC(CN(Cc1ccccc1)c1ccccc1)=NO |
| 124 | O=C(NC(Cc1c[nH]c2ccccc12)C(=O)O)OCc1ccccc1 (stereo not drawn) |
| 172 | O=C(O)c1nc(Cl)c(Cl)c(Cl)c1Cl |
| 172 to 177 | O=C(N[C@@H](CSC(c1ccccc1)(c1ccccc1)c1ccccc1)C(=O)O)OCC1c2ccccc2-c2ccccc21 |
| 52 | CCCCCCCCCCCCCCCCCC(=O)Oc1ccccc1 |

| melting point [°C] | Structure (SMILES) |
| --- | --- |
| 149 | COc1cc(C2Nn3c(nnc3-c3ccccc3)S2)ccc1O (stereo not drawn) |
| 222 | CC(=O)C1(O)CCC2C3CC(C)C4=CC(=O)CCC4(C)C3CCC21C (stereo not drawn) |
| 153 to 156 | Cc1ccc(S(=O)(=O)NN=Cc2ccccc2[N+](=O)[O-])cc1 |
| 220 | Cc1ccc(/N=N/c2c(N)nn3c(C(F)(F)F)cc(C)nc23)c(C)c1 |
| -26 | O=C=Nc1cccc(C(F)(F)F)c1 |
| 47 | Cc1ccc(Br)cc1[N+](=O)[O-] |
| 187 to 188 | CCc1nc(NC(=O)NS(=O)(=O)c2cccs2)nc(Cl)c1C |
| 121 | CC12CCC(C(OC(=O)c3ccc([N+](=O)[O-])cc3)=CC1=O)C2(C)C (stereo not drawn) |
| 200 | O=C(O)CCc1cc(I)c(Oc2ccc(O)c(I)c2)c(I)c1 |
| 92 to 95 | CCOC(=O)CC[C@H](NC(=O)c1ccc([N+](=O)[O-])cc1)C(=O)OCC |
| 106 to 107 | OCc1ccc(-c2cccnc2)cc1 |
| 35 to 37 | C1COCCOCCOCCOCCN1 |
| 207 to 210 | CSc1nc(N)c(C#N)s1 |
| -73 | CC1CCCC(=O)C1 (stereo not drawn) |
| 76.5 | CC(C)(O)CC(C)(O)c1ccc(Cl)cc1 (stereo not drawn) |
| 175 | CCOC(=O)c1nn(-c2cc(-c3ccc(OC)cc3)n[nH]2)c(=N)c(-c2nc3ccccc3s2)c1C |
| 59.5 | c1ccc(Cc2cccc3ccccc23)cc1 |
| 105 | CCCCCCSc1nc2ccc(NC(=O)COc3ccc(Cl)cc3Cl)cc2s1 |
| 71 | Nc1cccc(Cl)n1 |
| 263 | COc1ccc(-c2cc(=O)c3c(O)cc(O)cc3o2)cc1 |
| 85 | O=C(O)CS(=O)(=O)O |
| 197 | CC1(C)CCC2(C)CCC3(C)C(=CCC4C5(C)CCC(O)C(C)(C)C5CCC43C)C2C1 (stereo not drawn) |

| melting point [°C] | Structure (SMILES) |
| --- | --- |
| 76 | CC(=O)CCc1oc2ccc(C)cc2c1-c1ccc(C)o1 |
| 121 | Cc1ccc(S(C)(=O)=O)cc1[N+](=O)[O-] |
| 165 to 168 | N#CSc1ccc(N)c(C(=O)O)c1 |
| 67 | O=Cc1ccc(Br)cc1 |
| 280 to 281 | N#Cc1c(C(F)(F)F)cc(-c2cccnc2)[nH]c1=O |
| 89 to 91 | Cc1nc(-c2cc(C(=O)Cl)no2)cs1 |
| 190 | Clc1ccc2c(c1)oc1c(Cl)c(Cl)cc(Cl)c12 |
| 151 to 154 | Cn1nc(C(C)(C)C)cc1C(=O)O |
| 240 to 242 | Cc1cc(C(=O)O)c2ccccc2n1 |
| 126 | CCN1CCCC1CNC(=O)c1cc(S(=O)(=O)CC)c(N)cc1OC (stereo not drawn) |
| 185 to 187 | CN1CCNC(=O)CCSCCC1=O |
| 208 | O=C(NC1CCN(CCc2c[nH]c3ccccc23)CC1)c1ccccc1 |
| 143 | O=C(COc1ccc(Cl)cc1)n1c(=O)sc2ccccc21 |
| -32.4 | CCCCOC(=O)CCCCC(=O)OCCCC |
| 230 | O=C(O)c1cc(Br)c(Br)s1 |
| 65 | Nc1c(Br)cc(F)cc1Br |
| 66 | Nc1cc(F)c(C(F)(F)F)c(F)c1 |
| 110 to 112 | Clc1ncnc2scc(-c3cccs3)c12 |
| 158 to 160 | C=CCNc1nc(N)c(C(N)=O)s1 |
| 32 | Nc1c(Cl)cc(OC(F)(F)F)cc1Cl |
| 136 | CNC(=O)OCc1cccc(COC(=O)NC)n1 |
| 64 | Cc1ccc(C(c2ccc(Br)cc2)c2ccc(C)o2)o1 |

| melting point [°C] | Structure (SMILES) |
| --- | --- |
| 177 to 179 | Cc1ccc(S(=O)(=O)NN=Cc2coc(C=Cc3ccccc3)n2)cc1 |
| 43.5 | Cc1ccc(Cl)c(Cl)c1Cl |
| 120 | O=C(Nc1nc(-c2ccc(Cl)cc2)cs1)c1ccccc1 |
| 160 | COc1cccc(NC(N)=S)c1 |
| 180 to 183 | O=CN(C=O)N(C=O)C=O |
| 138 | Nc1cc2ccccc2c2ccccc12 |
| 189 to 193 | Nc1cc(Cl)c([N+](=O)[O-])cc1N |
| 184 | COCc1cc(=O)oc2cc(N)ccc12 |
| 130 to 134 | CSc1nc(N)cc(Cl)n1 |
| -63.7 | CCC/C=C/CCCCCC |
| 66 to 70 | Cc1nnsc1-c1onc(C)c1C(=O)Cl |
| 141 to 143 | COC(=O)c1ccc(N2CCCC2)cc1 |
| 193 to 198 | O=C(O)/C=C/c1ccc(F)c(F)c1 |
| 84 to 89 | CC(C)(C)OC(=O)N1c2ccccc2CC1CO (stereo not drawn) |
| 142 | COc1cc(C(=O)c2ccc(Cl)cc2)c([N+](=O)[O-])cc1OC |
| 166 | O=c1ccn(C2CC(O)C(CO)O2)c(=O)[nH]1 (stereo not drawn) |
| 64 to 65 | Clc1ncnc2sc3c(c12)CCCCC3 |
| 82 to 85 | CC(=O)Oc1nn(-c2ccccc2)cc1Br |
| 180 | CC(=O)c1c(O)c(C(C)(C)C)cc(C(C)(C)C)c1O |
| 174 | Sc1nc(-c2ccccc2)cs1 |
| -21 | C#CCCCCCC#C |

| Structure (SMILES) | melting point [°C] |
| --- | --- |
| CON(C)C(=O)Nc1ccc(Br)c(Cl)c1 | 96 |
| CC(C)N(C(=O)COc1nnc(C(F)(F)F)s1)c1ccc(F)cc1 | 78 |
| C[C@H]([C@@H](O)c1ccccc1)N1CCCC1 | 45 |
| COP(=O)(OC)OC(Br)C(Cl)(Cl)Br (stereo not drawn) | 27 |
| ClCc1cc2c(cc1Cl)OCO2 | 64 |
| CCOC(=O)C1N=C(c2ccccc2F)c2cc(Cl)ccc2NC1=O (stereo not drawn) | 194 |
| CC(=O)C(F)(F)F | -78 |
| O=C1NC(=S)NC(=O)C1=NNc1ccccc1[N+](=O)[O-] | 330 |
| CC(=O)C=Cc1ccc(Cl)cc1 | 55 |
| CC(C)(C)P(C(C)(C)C)C(C)(C)C | 30 |
| COC1=CC(=O)OC(C=Cc2ccccc2)C1 (stereo not drawn) | 106 |
| FCC(F)F | -84 |
| CCCSP(=O)(OCC)SCCC | 70 |
| O=C(O)C(Br)CBr (stereo not drawn) | 66.5 |
| Fc1ccc(C2(Cn3cncn3)OC2c2ccccc2Cl)cc1 (stereo not drawn) | 137 |
| CC1=C(O)C(=O)C2OC2C1=O (stereo not drawn) | 127 |
| CCCCc1ccc(C(=O)O)nc1 | 97 |
| C#CC1(O)CCC2(C)C(CCC3C2CCC2(C)C(OC(C)=O)CCC32)C1 (stereo not drawn) | 196 |
| O=C1NC(=S)NC(=O)C1=NNc1ccc(C(=O)O)cc1 | 340 |
